Like-named read-outs stand apart in the source and are kept apart here.
Columns and labels:
[1] = tested on: MDA-MB-231 human breast cancer cells; experiment: Alamar Blue cell viability (antiproliferative) assay; format: cell-based
[2] = tested on: A549/ATCC; experiment: NCI-60 SRB screen, non-small cell lung cancer; format: cell-based, human; details: Homo sapiens
[3] = tested on: EKVX; experiment: NCI-60 SRB screen, non-small cell lung cancer; format: cell-based, human; details: Homo sapiens, 48 h
[4] = tested on: HOP-62; experiment: NCI-60 SRB screen, non-small cell lung cancer; format: cell-based, human; details: Homo sapiens
[5] = tested on: HOP-92; experiment: NCI-60 SRB screen, non-small cell lung cancer; format: cell-based, human; details: Homo sapiens
[6] = tested on: NCI-H23; experiment: NCI-60 SRB screen, non-small cell lung cancer; format: cell-based, human; details: Homo sapiens
[7] = tested on: COLO 205; experiment: NCI-60 SRB screen, colon cancer; format: cell-based, human; details: Homo sapiens
[8] = tested on: HCT-116; experiment: NCI-60 SRB screen, colon cancer; format: cell-based, human; details: Homo sapiens
[9] = tested on: HCT-15; experiment: NCI-60 SRB screen, colon cancer; format: cell-based, human; details: Homo sapiens
[10] = tested on: HT29; experiment: NCI-60 SRB screen, colon cancer; format: cell-based, human; details: Homo sapiens
[11] = tested on: KM12; experiment: NCI-60 SRB screen, colon cancer; format: cell-based, human; details: Homo sapiens
[12] = tested on: SW-620; experiment: NCI-60 SRB screen, colon cancer; format: cell-based, human; details: Homo sapiens
[13] = tested on: SNB-75; experiment: NCI-60 SRB screen, CNS cancer; format: cell-based, human; details: Homo sapiens
[14] = tested on: PC-3; experiment: NCI-60 SRB screen, prostate cancer; format: cell-based, human; details: Homo sapiens
[15] = tested on: LOX IMVI; experiment: NCI-60 SRB screen, melanoma; format: cell-based, human; details: Homo sapiens, 48 h
[16] = tested on: M14; experiment: NCI-60 SRB screen, melanoma; format: cell-based, human; details: Homo sapiens
[17] = tested on: SK-MEL-5; experiment: NCI-60 SRB screen, melanoma; format: cell-based, human; details: Homo sapiens
[18] = tested on: UACC-62; experiment: NCI-60 SRB screen, melanoma; format: cell-based, human; details: Homo sapiens
[19] = tested on: IGROV1; experiment: NCI-60 SRB screen, ovarian cancer; format: cell-based, human; details: Homo sapiens
[20] = tested on: OVCAR-3; experiment: NCI-60 SRB screen, ovarian cancer; format: cell-based, human; details: Homo sapiens
[21] = tested on: OVCAR-4; experiment: NCI-60 SRB screen, ovarian cancer; format: cell-based, human; details: Homo sapiens
[22] = tested on: OVCAR-8; experiment: NCI-60 SRB screen, ovarian cancer; format: cell-based, human; details: Homo sapiens
[23] = tested on: 786-0; experiment: NCI-60 SRB screen, renal cancer; format: cell-based, human; details: Homo sapiens
[24] = tested on: A498; experiment: NCI-60 SRB screen, renal cancer; format: cell-based, human; details: Homo sapiens
[25] = tested on: ACHN; experiment: NCI-60 SRB screen, renal cancer; format: cell-based, human; details: Homo sapiens, 48 h
[26] = tested on: CAKI-1; experiment: NCI-60 SRB screen, renal cancer; format: cell-based, human; details: Homo sapiens
[27] = tested on: RXF 393; experiment: NCI-60 SRB screen, renal cancer; format: cell-based, human; details: Homo sapiens
[28] = tested on: UO-31; experiment: NCI-60 SRB screen, renal cancer; format: cell-based, human; details: Homo sapiens
[29] = tested on: BT-549; experiment: NCI-60 SRB screen, breast cancer; format: cell-based, human; details: Homo sapiens
[30] = tested on: MDA-MB-468; experiment: NCI-60 SRB screen, breast cancer; format: cell-based, human; details: Homo sapiens
[31] = tested on: MCF-7 human breast cancer cells; experiment: cells
[32] = tested on: MCF-7; experiment: cells; details: Homo sapiens, MCF7, 48 h
[33] = tested on: SK-MEL-2; experiment: NCI-60 SRB screen, melanoma; format: cell-based, human; details: Homo sapiens; SK-MEL-2; five dose 0.01–100 µM, 48 h; read-out: GI50
[34] = A549/ATCC, five dose 0.01–100 µM, 48 h, read-out: GI50
[35] = HOP-62, five dose 0.01–100 µM, 48 h, read-out: GI50
[36] = HOP-92, five dose 0.01–100 µM, 48 h, read-out: GI50
[37] = NCI-H23, five dose 0.01–100 µM, 48 h, read-out: GI50
[38] = COLO 205, five dose 0.01–100 µM, 48 h, read-out: GI50
[39] = HCT-116, five dose 0.01–100 µM, 48 h, read-out: GI50
[40] = HCT-15, five dose 0.01–100 µM, 48 h, read-out: GI50
[41] = HT-29, HT29, five dose 0.01–100 µM, 48 h, read-out: GI50
[42] = KM12, five dose 0.01–100 µM, 48 h, read-out: GI50
[43] = SW-620, five dose 0.01–100 µM, 48 h, read-out: GI50
[44] = SNB-75, five dose 0.01–100 µM, 48 h, read-out: GI50
[45] = PC-3, five dose 0.01–100 µM, 48 h, read-out: GI50
[46] = five dose 0.01–100 µM, read-out: GI50
[47] = M14, five dose 0.01–100 µM, 48 h, read-out: GI50
[48] = SK-MEL-5, five dose 0.01–100 µM, 48 h, read-out: GI50
[49] = UACC-62, five dose 0.01–100 µM, 48 h, read-out: GI50
[50] = IGROV-1, IGROV1, five dose 0.01–100 µM, 48 h, read-out: GI50
[51] = OVCAR-3, five dose 0.01–100 µM, 48 h, read-out: GI50
[52] = OVCAR-4, five dose 0.01–100 µM, 48 h, read-out: GI50
[53] = OVCAR-8, five dose 0.01–100 µM, 48 h, read-out: GI50
[54] = 786-0, five dose 0.01–100 µM, 48 h, read-out: GI50
[55] = A498, five dose 0.01–100 µM, 48 h, read-out: GI50
[56] = CAKI-1, five dose 0.01–100 µM, 48 h, read-out: GI50
[57] = RXF 393, five dose 0.01–100 µM, 48 h, read-out: GI50
[58] = UO-31, five dose 0.01–100 µM, 48 h, read-out: GI50
[59] = BT-549, five dose 0.01–100 µM, 48 h, read-out: GI50
[60] = MDA-MB-468, five dose 0.01–100 µM, 48 h, read-out: GI50

For `C=C/C=C/C1C(=O)N(c2cc(OC)c(OC)c(OC)c2)C1c1ccc(OC)c(N)c1` (stereo not drawn) [11r, (E)-4-(3-Amino-4-methoxyphenyl)-3-(buta-1,3-dien-1-yl)-1-(3,4,5-trimethoxyphenyl)azetidin-2-one], the IC50 ([1]; read-out: IC50) was 33 nM, the GI50 ([2]; A549, 48 h) was 38 nM and the GI50 [3] was 88 nM. For the same compound, the GI50 ([4]; HOP-62, 48 h) was 52.5 nM, the GI50 ([5]; HOP-92, 48 h) was 25.3 nM and the GI50 ([6]; NCI-H23, 48 h) was 30 nM. It also gave a GI50 ([7]; COLO 205, 48 h) of 23.1 nM, a GI50 ([8]; HCT-116, 48 h) of 27.2 nM and a GI50 ([9]; HCT-15, 48 h) of 37 nM. The IC50 ([10]; HT-29) was 34 nM, the GI50 ([10]; HT-29, 48 h) was 33.6 nM and the GI50 ([11]; KM12, 48 h) was 33.1 nM. It also gave a GI50 ([12]; SW-620, 48 h) of 42.9 nM, a GI50 ([13]; SNB-75, 48 h) of 36.8 nM and a GI50 ([14]; PC-3, 48 h) of 39.2 nM. The GI50 [15] was 34.4 nM, the GI50 ([16]; M14, 48 h) was 22.3 nM and the GI50 ([17]; SK-MEL-5, 48 h) was 22.2 nM. The GI50 ([18]; UACC-62, 48 h) was 39.6 nM, the GI50 ([19]; IGROV-1, 48 h) was 46.6 nM and the GI50 ([20]; OVCAR-3, 48 h) was 26.2 nM. The GI50 ([21]; OVCAR-4, 48 h) was 38.8 nM, the GI50 ([22]; OVCAR-8, 48 h) was 38.4 nM and the GI50 ([23]; 786-0, 48 h) was 32.7 nM. The GI50 ([24]; A498, 48 h) was 22.3 nM, the GI50 [25] was 61.4 nM and the GI50 ([26]; CAKI-1, 48 h) was 63.1 nM. The GI50 ([27]; RXF 393, 48 h) was 45.7 nM, the GI50 ([28]; UO-31, 48 h) was 190 nM and the GI50 ([29]; BT-549, 48 h) was 25.3 nM. The GI50 ([30]; MDA-MB-468, 48 h) was 26.7 nM, the IC50 ([31]; MCF7, read-out: Antiproliferative Activity IC50) was 36 ± 5 nM and the GI50 [32] was 33.6 nM.
`C=C(C)C1C(=O)N(c2cc(OC)c(OC)c(OC)c2)C1c1ccc(OC)c(OP(=O)(O)O)c1` (stereo not drawn) [15a, 2-Methoxy-5-(4-oxo-3-(prop-1-en-2-yl)-1-(3,4,5-trimethoxyphenyl)azetidin-2-yl)-phenyl dihydrogen phosphate] showed an IC50 ([1]; 72 h, eight concentrations 0.001-50 μM, mean ± SEM, read-out: Antiproliferative Activity IC50) of 32 ± 5 nM, a GI50 [2, 34] of 59.6 nM and a GI50 [4, 35] of 105 nM. The GI50 [5, 36] was 315 nM, the GI50 [6, 37] was 90.2 nM and the GI50 [7, 38] was 312 nM. It also gave a GI50 [8, 39] of 50.6 nM, a GI50 [9, 40] of 70.7 nM and a GI50 [10, 41] of 577 nM. For the same compound, the GI50 [11, 42] was 38.1 nM, the GI50 [12, 43] was 80.7 nM and the GI50 [13, 44] was 36.1 nM. The GI50 [14, 45] was 49.4 nM, the GI50 [15, 46] was 42.6 nM and the GI50 [16, 47] was 123 nM. The GI50 [33] was 75 nM, the GI50 [17, 48] was 40.6 nM and the GI50 [18, 49] was 55.5 nM. It also gave a GI50 [19, 50] of 62.8 nM, a GI50 [20, 51] of 62.4 nM and a GI50 [21, 52] of 73.9 nM. The GI50 [22, 53] was 50.6 nM, the GI50 [23, 54] was 390 nM and the GI50 [24, 55] was 32.4 nM. It also gave a GI50 [25, 46] of 77.1 nM, a GI50 [26, 56] of 80.5 nM and a GI50 [27, 57] of 123 nM. It also gave a GI50 [28, 58] of 182 nM, a GI50 [29, 59] of 59.6 nM and a GI50 [30, 60] of 131 nM. The IC50 ([31]; MCF7) was 19 nM and the GI50 [32] was 51.3 nM.
For `COc1ccc(C2C(C(C)C)C(=O)N2c2cc(OC)c(OC)c(OC)c2)cc1OP(=O)(O)O` (stereo not drawn) [15b, 5-(3-Isopropyl-1-(3,4,5-trimethoxyphenyl)-4-oxoazetidin-2-yl)-2-methoxyphenyl dihydrogen phosphate], the GI50 [2, 34] was 353 nM, the GI50 [4, 35] was 374 nM and the GI50 [5, 36] was 11200 nM. It also gave a GI50 [6, 37] of 368 nM, a GI50 [7, 38] of 1230 nM and a GI50 [8, 39] of 319 nM. The GI50 [9, 40] was 298 nM, the GI50 [10, 41] was 3470 nM and the GI50 [11, 42] was 180 nM. For the same compound, the GI50 [12, 43] was 373 nM, the GI50 [13, 44] was 116 nM and the GI50 [14, 45] was 278 nM. The GI50 [15, 46] was 328 nM, the GI50 [16, 47] was 291 nM and the GI50 [33] was 500 nM. The GI50 [17, 48] was 164 nM, the GI50 [18, 49] was 131 nM and the GI50 [19, 50] was 434 nM. The GI50 [20, 51] was 270 nM, the GI50 [21, 52] was 282 nM and the GI50 [22, 53] was 300 nM. For the same compound, the GI50 [23, 54] was 439 nM, the GI50 [24, 55] was 104 nM and the GI50 [25, 46] was 359 nM. The GI50 [26, 56] was 320 nM, the GI50 [27, 57] was 282 nM and the GI50 [28, 58] was 538 nM. The GI50 [29, 59] was 411 nM, the GI50 [30, 60] was 273 nM and the IC50 ([31]; MCF7, 72 h, read-out: Antiproliferative Activity IC50) was 145000 ± 7760 nM. For the same compound, the GI50 [32] was 244 nM.

Reference: publication PMC10385824, “Antiproliferative and Tubulin-Destabilising Effects of 3-(Prop-1-en-2-yl)azetidin-2-Ones and Related Compounds in MCF-7 and MDA-MB-231 Breast Cancer Cells” (Pharmaceuticals, 2023)
